{
  "source": "patent US9206236B2",
  "about": "“Peptides for treating cancer” (Gene Signal International SA, priority 2010, dated 2015)",
  "key": {"[1]": {"experiment": "Body weight and toxicity of mice bearing NCI-H460 tumors (Example 2)", "format": "in vivo", "experimental": "(§1) All experiments were reviewed by the Genopole's institutional animal care and use committee and were performed in accordance with institutional guidelines for animal care. Female BALB/c nu/nu mice (n=30) were used at 5-6 weeks of age. The animals were housed in laminar air-flow cabinets under pathogen-free conditions with a 12 h light/12 h dark schedule, and fed autoclaved standard chow and water ad libitum. […] Tumor cells (10^7 cells in 200 μl of HBSS) were injected subcutaneously into the right flanks of mice. […] At tumor volume about 150 mm3, animals were randomized, and separated into five groups of five animals. Control mice (group 1) were intraperitoneally injected with vehicle (10% DMSO in buffer saline) every day. GS-0 was dissolved in vehicle and intraperitoneally injected (group 2) every day (12 injections). GS-1 was dissolved in vehicle and intraperitoneally injected (group 3) every day (12 injections). Tumor volume and body weight were measured every other day over the treatment period (12 days)."}, "[2]": {"experiment": "Body weight and toxicity of mice bearing NCI-H460 tumors (Example 3)", "format": "in vivo", "experimental": "as §1, with “mm^3,” for “mm3,”, “GS-2” for “GS-1”"}, "[3]": {"molecular_target": "T1, recruitment of the regulatory subunit (p85) of the enzyme PI-3K by IRS-1 (Homo sapiens, UniProt P27986)", "T1 construct": "endogenous in cells; host or cells: human microvascular endothelial cells (HMEC)", "T1 sequence (P27986 whole entry)": "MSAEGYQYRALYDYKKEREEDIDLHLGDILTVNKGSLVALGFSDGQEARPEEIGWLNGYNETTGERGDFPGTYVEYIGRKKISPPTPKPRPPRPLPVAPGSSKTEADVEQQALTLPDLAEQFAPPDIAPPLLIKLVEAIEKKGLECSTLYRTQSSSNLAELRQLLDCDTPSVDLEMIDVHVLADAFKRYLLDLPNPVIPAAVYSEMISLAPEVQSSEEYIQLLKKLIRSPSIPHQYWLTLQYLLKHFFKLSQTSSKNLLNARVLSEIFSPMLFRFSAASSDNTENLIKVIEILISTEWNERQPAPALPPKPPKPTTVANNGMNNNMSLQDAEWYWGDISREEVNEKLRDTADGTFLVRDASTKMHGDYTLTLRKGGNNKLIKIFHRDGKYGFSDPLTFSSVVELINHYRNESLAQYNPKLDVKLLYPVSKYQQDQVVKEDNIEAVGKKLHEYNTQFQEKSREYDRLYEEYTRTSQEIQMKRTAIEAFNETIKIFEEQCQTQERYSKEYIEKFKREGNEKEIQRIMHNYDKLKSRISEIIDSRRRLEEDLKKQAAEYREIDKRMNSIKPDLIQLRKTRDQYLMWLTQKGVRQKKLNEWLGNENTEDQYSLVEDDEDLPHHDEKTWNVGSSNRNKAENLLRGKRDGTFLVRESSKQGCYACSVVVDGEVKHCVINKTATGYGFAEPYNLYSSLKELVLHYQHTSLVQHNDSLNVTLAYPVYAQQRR", "experiment": "Recruitment of p85 of PI-3K by IRS-1 (IRS-1 immunoprecipitation, anti-p85 immunoblot) in HMEC", "format": "cell-based", "conditions": "final concentration of peptide 500 μg/ml", "experimental": "(§2) Human EC grown in EGM-2MV (80% confluence) were incubated with the peptides of the invention or vehicle for the indicated time, washed three times in cold PBS and directly lysed in 2 ml of ice-cold lysis buffer (10 mM Tris pH 7.5, 150 mM NaCl, 1 mM PMSF, 0.5 μg/ml leupeptin, 1 μg/ml pepstatin A, and 1 μg/ml aprotinin) by incubation for 30 min at 4° C. Cell lysate were spun at […] for 10 min, insoluble materials were discarded, and protein contents measured by Bradford assay of supernatants were adjusted. Cell lysate (1 ml) was precleared with 25 μl of protein G-plus agarose beads (Santa Cruz) for 30 min, and proteins were then immunoprecipitated by adding 2 μg of the indicated antibody and incubated for 1 hr. The immunocomplex was pulled down with protein G-plus agarose beads and the beads were washed three times with lysis buffer. The immunoprecipitates were separated by NuPAGE® 4-12% Bis-Tris gel electrophoresis under reducing conditions, transferred to PVDF membrane (Novex System, Invitrogen), and the membrane was blocked with 5% (w/v) non-fat milk in TBS containing 0.1% v/v Tween-20 for 1 hr.\nAs it is widely admitted that the tyrosine phosphorylation of IRS-1 leads to its association with the regulatory subunit (p85) of the enzyme PI-3K, and this event lead to important increases in the enzymatic activity of this later, we have investigated the influence of the tyrosine phosphorylated and non phosphorylated peptides onto the recruitment of the regulatory subunit (p85) of the enzyme PI-3K by IRS-1. For that, human microvascular endothelial cells (HMEC) were incubated with the tyrosine phosphorylated and non phosphorylated peptides (final concentration of peptide 500 μg/ml) followed by cells lysis and immuoprecipitation of the protein IRS-1. The immunoprecipitates were then resolved in SDS-PAGE, proteins were transferred to membranes, and the membranes were immunoblotted with an anti-p85 PI3K monoclonal antibody."}, "[4]": {"tested_on": "mTOR", "experiment": "mTOR status in HMEC after incubation with peptides (anti-mTor antibody Ser2448)", "format": "cell-based, human", "experimental": "as §2\nThe status of mTOR in the HMEC following incubation with peptides GS-0 and GS-1 was investigated."}, "[5]": {"tested_on": "human microvascular endothelial cells (HMEC)", "experiment": "In vitro angiogenesis assay (Matrigel tube formation)", "format": "cell-based", "conditions": "500 μg/ml final concentration of peptide, images at 18 h", "experimental": "Angiogenesis of human microvascular endothelial cells (HMEC) was induced in vitro using a Matrigel assay described by Al-Mahmood et al (2009, JPET, 2009; 58:933). This method is based on the differentiation of endothelial cells to form capillary structures on a Matrigel Matrix. Matrigel is prepared the Engelbreth-Holm-Swarm (EHS) mouse tumor, which represents a complex mixture of basement membrane proteins including type IV collagen, entactin, proteo-heparan sulfate and other growth factors.\nBriefly, 250 μl of Matrigel were transferred to each well of a 24-well culture plate and incubated at 37° C. for 30 min to allow for the matrix solution to solidify. HMEC grown in complete growth medium EGM-2MV were harvested by trypsin, suspended in the same growth medium and 500 μl containing 70 000 cells were added on top of the solidified Matrigel in each well and in the presence or absence of peptide. Cells were maintained in a humidified atmosphere air containing 5% CO2 at 37° C. for 18-24 hrs. Endothelial tube formation was observed and photographed under an inverted light microscope.\nThe designed tyrosine phosphorylated and non phosphorylated peptides were tested for their influence onto the in vitro angiogenesis. The results of the in vitro angiogenesis assay were presented in FIG. 1, using HMEC and 500 μg/ml final concentration of each peptide."}, "[6]": {"conditions": "8 mg/kg intraperitoneally every day, 12 injections"}},
  "data": [
    {"substance": "Ac-NYICMG-NH2 [GS-0, NYICMG, reference compound]", "values": [
      {"measurement": "toxicity and body weight loss during treatment", "setting": "[1]; [6]", "value": "No toxicity and no body weight loss"},
      {"measurement": "Mean body weight D1", "setting": "[1]; Table 1, 8 mg/kg i.p. daily, day 1, in g", "value": 20.91},
      {"measurement": "Mean body weight D3", "setting": "[1]; Table 1, 8 mg/kg i.p. daily, day 3, in g", "value": 21.37},
      {"measurement": "Mean body weight D5", "setting": "[1]; Table 1, 8 mg/kg i.p. daily, day 5, in g", "value": 21.65},
      {"measurement": "Mean body weight D7", "setting": "[1]; Table 1, 8 mg/kg i.p. daily, day 7, in g", "value": 21.81},
      {"measurement": "Mean body weight D9", "setting": "[1]; Table 1, 8 mg/kg i.p. daily, day 9, in g", "value": 22.52},
      {"measurement": "Mean body weight D11", "setting": "[1]; Table 1, 8 mg/kg i.p. daily, day 11, in g", "value": 22.76},
      {"measurement": "Mean body weight D13", "setting": "[1]; Table 1, 8 mg/kg i.p. daily, day 13, in g", "value": 22.36},
      {"measurement": "toxicity and body weight loss during treatment", "setting": "[2]; [6]", "value": "No toxicity and no body weight loss"},
      {"measurement": "Mean body weight D1", "setting": "[2]; Table 3, 8 mg/kg i.p. daily, day 1, in g", "value": 20.91},
      {"measurement": "Mean body weight D3", "setting": "[2]; Table 3, 8 mg/kg i.p. daily, day 3, in g", "value": 21.37},
      {"measurement": "Mean body weight D5", "setting": "[2]; Table 3, 8 mg/kg i.p. daily, day 5, in g", "value": 21.65},
      {"measurement": "Mean body weight D7", "setting": "[2]; Table 3, 8 mg/kg i.p. daily, day 7, in g", "value": 21.81},
      {"measurement": "Mean body weight D9", "setting": "[2]; Table 3, 8 mg/kg i.p. daily, day 9, in g", "value": 22.52},
      {"measurement": "Mean body weight D11", "setting": "[2]; Table 3, 8 mg/kg i.p. daily, day 11, in g", "value": 22.76},
      {"measurement": "Mean body weight D13", "setting": "[2]; Table 3, 8 mg/kg i.p. daily, day 13, in g", "value": 22.36},
      {"measurement": "influence onto the recruitment of the regulatory subunit (p85) of PI3K by IRS-1", "setting": "[3]", "value": "no and/or negligible influence"},
      {"measurement": "amounts of mTOR in HMEC relative to vehicle", "setting": "[4]", "value": "equivalent amounts of mTOR as cell incubated with vehicle"},
      {"measurement": "in vitro angiogenesis-inhibitory activity", "setting": "[5]", "value": "have not and/or negligible in vitro angiogenesis-inhibitory activity"}
    ]}
  ]
}
